Like-named read-outs stand apart in the source and are kept apart here.
How the values were obtained:
GHS-R = GHS-R (Homo sapiens, UniProt Q92847); assay: GHS-R antagonist activity in a cell based assay; settings: GHS-R modulating compounds
severe TBI [1] = settings: cited from earlier work; for brain tissue loss / loss of brain volume: 7 days following injury, 10 minutes and 1 hour after TBI; for brain tissue loss / loss of brain volume / apoptosis in the neocortex (TUNEL staining): ghrelin 20 μg/kg; for apoptosis in the neocortex (TUNEL staining): two doses
[2] = human, in vivo; cited from earlier work
severe TBI [3] = assay: severe TBI model (brain tissue loss, apoptosis, balance beam foot faults, edema); assay type: in vivo, mice; settings: as low as 20 μg/kg in two doses early after injury; pre-clinical modeling
From the text: In a series of publications, the Bansal laboratory has shown that exogenously dosed ghrelin confers significant neuroprotective benefits following severe TBI. […] Severe TBI causes significant tissue necrosis and neuron loss secondary to edema and apoptosis. […] Severe TBI induces apoptosis within the neocortex (TUNEL staining green). […] Severe TBI caused significant neurocognitive defects (as measured by foot faults on a balance beam assay) on post-TBI Day 1, 3 and 7 compared to sham.

rodent brain injury = settings: cited from earlier work
mild TBI [4] = assay: mild TBI model (controlled cortical impactor), whole brain oxidative burst assay by flow cytometry; assay type: in vivo, mouse
Experimental: In a mild TBI model, ghrelin therapy provided significant neuroprotective effects. Using a controlled cortical impactor, with standardized settings (5.0 m/s, a 3 mm diameter impounder tip, a depth of 1.0 mm, and a dwell time of 0.2 milliseconds), a mouse mild brain injury was elicited in three groups (n=5 in each group), sham, mTBI only, mTBI with 2 doses of ghrelin (50 μg/kg) 10 minutes and 1 hour after injury. Animals were sacrificed after 24 hours and whole brain reactive oxygen species was assessed by an oxidative burst assay as measured by flow cytometry. […] Ghrelin therapy decreased mTBI oxidative burst to sham levels 3,300 MFI (SEM 1,000); p<0.05 mTBI compared to drug treated.

mild TBI [5] = assay: mild TBI model, myeloperoxidase (MPO) and Gr-1 (neutrophil) staining in the hippocampus; assay type: in vivo, mouse; settings: same three animal groups
Experimental: In a mild TBI model, ghrelin therapy provided significant neuroprotective effects. Using a controlled cortical impactor, with standardized settings (5.0 m/s, a 3 mm diameter impounder tip, a depth of 1.0 mm, and a dwell time of 0.2 milliseconds), a mouse mild brain injury was elicited in three groups (n=5 in each group), sham, mTBI only, mTBI with 2 doses of ghrelin (50 μg/kg) 10 minutes and 1 hour after injury. Ghrelin reduces oxidative burst (a measure of ROS) following mild TBI in animal models. Oxidative burst was determined 24 hours following mild TBI in three groups via flow cytometry. […] In separate experiments, using the same three animal groups, myeloperoxidase (MPO) and Gr-1 (neutrophil) staining were conducted in the hippocampus. […] Myeloperoxidase (MPO) is a potent enzyme in neutrophils and […] that forms hypochlorous acid (ROS). […] Ghrelin therapy reduced MPO staining. These observations built upon previous work showing ghrelin's protective effect following severe TBI models, stroke and other neurodegenerative diseases.

GHS-R, sequence (Q92847 whole entry, species assumed): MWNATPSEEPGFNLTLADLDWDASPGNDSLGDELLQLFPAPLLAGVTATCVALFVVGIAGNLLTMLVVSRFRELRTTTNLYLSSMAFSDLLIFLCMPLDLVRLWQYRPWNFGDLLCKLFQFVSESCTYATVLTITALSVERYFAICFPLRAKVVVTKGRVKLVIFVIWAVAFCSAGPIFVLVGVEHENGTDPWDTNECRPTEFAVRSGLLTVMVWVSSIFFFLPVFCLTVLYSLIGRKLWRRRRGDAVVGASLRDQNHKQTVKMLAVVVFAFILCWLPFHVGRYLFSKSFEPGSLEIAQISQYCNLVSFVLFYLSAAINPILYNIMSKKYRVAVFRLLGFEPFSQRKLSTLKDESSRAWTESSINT

Molecule | Ki (GHS-R) [nM] | brain tissue loss / loss of brain volume (severe TBI [1]; listed as ghrelin) | brain tissue loss / loss of brain volume (severe TBI [1]) | invasion of inflammatory cells (severe TBI [1]) | apoptosis in the neocortex (TUNEL staining) (severe TBI [1]; listed as ghrelin) | apoptosis in the neocortex (TUNEL staining) (severe TBI [1]) | neurocognitive function (foot faults on a balance beam assay) (severe TBI [1]; post-TBI Day 1, 3 and 7, ghrelin dosed only at Day 0, listed as ghrelin) | neurocognitive function (foot faults on a balance beam assay) (severe TBI [1]; post-TBI Day 1, 3 and 7, ghrelin dosed only at Day 0) | serious adverse events [2] | side effects observed [2] | post-severe TBI edema (severe TBI [3]) | ROS accumulation (rodent brain injury) | neuro-cognitive function (rodent brain injury) | neuron tissue loss (rodent brain injury) | neuronal apoptosis (rodent brain injury) | efficacy in mTBI (mild TBI [4]; 50 μg/kg, two doses administered within 24 hours of injury, initial pre-clinical experiments) | oxidative burst (a measure of ROS) following mild TBI (mild TBI [4]; 24 hours following mild TBI, flow cytometry) | oxidative burst (whole brain reactive oxygen species) (mild TBI [4]; mouse mTBI, 2 doses of ghrelin (50 μg/kg) 10 minutes and 1 hour after injury, sacrificed after 24 hours, flow cytometry, n=5) | MPO staining in the hippocampus (mild TBI [5]) | neutrophil infiltration (Gr-1 staining) in the hippocampus (mild TBI [5])
CCN(CC)CCCS(=O)(=O)N[C@H](CCc1ccccc1)c1nc(-c2cncc(Br)c2)no1 [Compound 103] | 100 to 500 | – | – | – | – | – | – | – | – | – | – | – | – | – | – | – | – | – | – | –
Ghrelin (GSSFLSPEHQRVQQRKESKKPPAKLQPR; Ghrelin-28; UniProt Q9UBU3 24-51, looked up) | – | significantly less | significantly decreased | decreased | significantly less | significantly reduced | improved | prevented neurocognitive decline to levels of sham | no serious adverse events | only transient gastrointestinal symptoms | significant decrease | prevents | improves | decreases | prevents | efficacy | significantly reduced | 3,300 MFI | significant reduction | significant reduction

— patent publication US20170121385A1 (Oxeia Biopharmaceuticals, Inc., priority 2015, published 2017)
